Test results from ChEMBL document CHEMBL1201862, “PubChem BioAssay data set” (2004).
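Five compound concentrations were applied to cells in 96-well plates for 48 hours; endpoints were derived by simple linear interpolation of the resulting dose-response curve. Abbreviation: GI50, concentration required for 50% inhibition of growth.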 Activity calls are given as the source filed them. Cut-off read from the data, not from the text of the source: active = GI50 up to about 1.1 µM and inactive = higher.

How the values were obtained:
Test in all cases: DTP human tumour cell line panel, 48 h
SK-MEL-2 = system: SK-MEL-2
HCT-15 = system: HCT-15
MDA-MB-435 = system: MDA-MB-435
K562 = system: K562
NCI-H226 = system: NCI-H226
MCF7 = system: MCF7
RPMI-8226 = system: RPMI-8226
CAKI-1 = system: CAKI-1
DU-145 = system: DU-145
SN12C = system: SN12C
UACC-62 = system: UACC-62
SW-620 = system: SW-620
SF-268 = system: SF-268
PC-3 = system: PC-3
M14 = system: M14
COLO 205 = system: COLO 205
OVCAR-3 = system: OVCAR-3
HCC 2998 = system: HCC 2998
KM12 = system: KM12
HL-60 = system: HL-60

Compound | GI50 (SK-MEL-2) | GI50 (HCT-15) [µM] | GI50 (MDA-MB-435) | GI50 (K562) | GI50 (NCI-H226) | GI50 (MCF7) | GI50 (RPMI-8226) | GI50 (CAKI-1) | GI50 (DU-145) | GI50 (SN12C) | GI50 (UACC-62) | GI50 (SW-620) | GI50 (SF-268) | GI50 (PC-3) | GI50 (M14) | GI50 (COLO 205) | GI50 (OVCAR-3) | GI50 (HCC 2998) | GI50 (KM12) | GI50 (HL-60)
COC(=O)CNC(=O)c1cc(C)cc2c1Oc1c(cc(C)cc1C(=O)NCC(=O)OC)S2 | > 100 µM (inactive) | 53.1 | > 100 µM (inactive) | > 100 µM (inactive) | > 100 µM (inactive) | 98.9 µM (inactive) | 40 µM (inactive) | > 100 µM (inactive) | 45.4 µM (inactive) | 57.8 µM (inactive) | 34.1 µM (inactive) | > 100 µM (inactive) | 99.8 µM (inactive) | > 100 µM (inactive) | 42.6 µM (inactive) | 28.4 µM (inactive) | 38.5 µM (inactive) | 38.5 µM (inactive) | 81.7 µM (inactive) | 
CCC(C)C(NC(=O)c1cccc2c(=O)c3ccccc3[nH]c12)C(=O)O (stereo unspecified) | > 100 µM (inactive) | > 100 | > 100 µM (inactive) | 91.8 µM (inactive) | > 100 µM (inactive) | > 100 µM (inactive) | 57.1 µM (inactive) |  | > 100 µM (inactive) | > 100 µM (inactive) | > 100 µM (inactive) | > 100 µM (inactive) | 87.5 µM (inactive) | > 100 µM (inactive) | > 100 µM (inactive) | > 100 µM (inactive) | > 100 µM (inactive) |  | 61.1 µM (inactive) | 
N#C/C(=C\NC(=S)Nc1ccc(S(=O)(=O)Nc2ccccn2)cc1)C(N)=O | > 100 µM (inactive) | > 100 | > 100 µM (inactive) | 47.9 µM (inactive) | > 100 µM (inactive) | > 100 µM (inactive) | > 100 µM (inactive) | > 100 µM (inactive) | > 100 µM (inactive) | > 100 µM (inactive) | > 100 µM (inactive) | > 100 µM (inactive) | > 100 µM (inactive) | > 100 µM (inactive) | > 100 µM (inactive) | > 100 µM (inactive) | > 100 µM (inactive) |  | > 100 µM (inactive) | 
CCOC(=O)c1c(SC(=O)/C=C/c2ccccc2)n(-c2ccccc2)c(=S)n(-c2ccccc2)c1=O |  | > 100 | > 100 µM (inactive) | > 100 µM (inactive) | > 100 µM (inactive) | > 100 µM (inactive) |  | > 100 µM (inactive) | > 100 µM (inactive) | > 100 µM (inactive) | > 100 µM (inactive) | > 100 µM (inactive) | > 100 µM (inactive) | > 100 µM (inactive) | > 100 µM (inactive) | > 100 µM (inactive) | > 100 µM (inactive) | > 100 µM (inactive) | > 100 µM (inactive) | 
Cc1[nH]n(C2=NCCN2)c(=O)c1Cc1ccccc1 | > 100 µM (inactive) | > 100 | > 100 µM (inactive) | > 100 µM (inactive) | > 100 µM (inactive) | > 100 µM (inactive) | > 100 µM (inactive) | > 100 µM (inactive) |  |  | > 100 µM (inactive) | > 100 µM (inactive) | > 100 µM (inactive) | > 100 µM (inactive) | > 100 µM (inactive) | > 100 µM (inactive) | > 100 µM (inactive) |  | > 100 µM (inactive) | > 100 µM (inactive)
C[n+]1c(-c2ccc(/C=N/Nc3ccnc(N/N=C/c4ccc(-c5cn6ccsc6[n+]5C)cc4)n3)cc2)cn2ccsc21 | 29.8 µM (inactive) | 27.5 | 4.57 µM (inactive) | 12.1 µM (inactive) | 17.7 µM (inactive) | 48.4 µM (inactive) | 8.61 µM (inactive) | 18.5 µM (inactive) | 27.7 µM (inactive) | 31.5 µM (inactive) | 25.1 µM (inactive) | 33 µM (inactive) |  | 30.2 µM (inactive) | 8.81 µM (inactive) | 35.4 µM (inactive) | > 100 µM (inactive) | 31.6 µM (inactive) | 22.1 µM (inactive) | 
CCOC(=O)c1cn(CC)c(=O)n2c1nc1ccccc12 | > 100 µM (inactive) | 40.2 | > 100 µM (inactive) | 42.1 µM (inactive) | 44.3 µM (inactive) | 54.6 µM (inactive) | 24.4 µM (inactive) | 57.9 µM (inactive) | 45.5 µM (inactive) | > 100 µM (inactive) | 57.5 µM (inactive) | > 100 µM (inactive) |  | > 100 µM (inactive) | > 100 µM (inactive) | > 100 µM (inactive) | 83.8 µM (inactive) | 96.8 µM (inactive) | 59.6 µM (inactive) | 
O=C(O)[C@@H]1OCCOCCO[C@@H](C(=O)O)[C@H](C(=O)O)OCCOCCO[C@H]1C(=O)O | > 100 µM (inactive) | > 55.8 |  | > 72.3 µM (inactive) | > 100 µM (inactive) |  | > 38.4 µM (inactive) | > 100 µM (inactive) |  | > 100 µM (inactive) | > 100 µM (inactive) | > 50.1 µM (inactive) | > 100 µM (inactive) |  | > 100 µM (inactive) | > 61.7 µM (inactive) | > 100 µM (inactive) | > 100 µM (inactive) | > 100 µM (inactive) | 14.3 µM (inactive)
C/C(=N\Nc1ccc([N+](=O)[O-])cc1[N+](=O)[O-])c1ccc2ccccc2n1 | > 100 µM (inactive) | 60.3 | > 100 µM (inactive) | > 100 µM (inactive) | 88.1 µM (inactive) | 89.9 µM (inactive) | > 100 µM (inactive) | 58.9 µM (inactive) | > 100 µM (inactive) | > 100 µM (inactive) | 66.2 µM (inactive) | > 100 µM (inactive) | 61 µM (inactive) | > 100 µM (inactive) | > 100 µM (inactive) | > 100 µM (inactive) |  |  | > 100 µM (inactive) | 
N#CC(C(=O)C(N)=O)c1ccccc1Cl (stereo unspecified) | > 100 µM (inactive) | > 100 |  | > 100 µM (inactive) | > 100 µM (inactive) |  | > 100 µM (inactive) | > 100 µM (inactive) |  | > 100 µM (inactive) | > 100 µM (inactive) | > 100 µM (inactive) | > 100 µM (inactive) |  | > 100 µM (inactive) | > 100 µM (inactive) | > 100 µM (inactive) | > 100 µM (inactive) | > 100 µM (inactive) | > 100 µM (inactive)
COc1cc2c(cc1OCCCOS(C)(=O)=O)N=C[C@@H]1CCCN1C2=O | > 100 µM (inactive) | > 100 | > 100 µM (inactive) |  | > 100 µM (inactive) | > 100 µM (inactive) | > 100 µM (inactive) | > 100 µM (inactive) | > 100 µM (inactive) | > 100 µM (inactive) | > 100 µM (inactive) | > 100 µM (inactive) | > 100 µM (inactive) |  | > 100 µM (inactive) | > 100 µM (inactive) | > 100 µM (inactive) | > 100 µM (inactive) | > 100 µM (inactive) | > 100 µM (inactive)
COc1ccc(/N=N/c2c(O)ccc3ccccc23)cc1 | 35.6 µM (inactive) | 57.8 | > 100 µM (inactive) |  | 17.7 µM (inactive) |  |  | > 100 µM (inactive) |  | > 100 µM (inactive) | 15.6 µM (inactive) | 86.1 µM (inactive) | 16.1 µM (inactive) | 28.2 µM (inactive) | 26.1 µM (inactive) | > 100 µM (inactive) | 28.6 µM (inactive) |  | 12.1 µM (inactive) | > 100 µM (inactive)
